Assay results: PMC10485003, “Antibiotic hyper-resistance in a class I aminoacyl-tRNA synthetase with altered active site signature motif” (Nature Communications, 2023)
“And” between values parts separate entries of the source, which are not always exact repeats. Identical values can stand only once.

Legend:
wt-ALHH DrIleRS2 = target: T1, wt-ALHH DrIleRS2 (Deinococcus radiodurans, UniProt Q9RUP8); experiment: ATP-PPi exchange assay, mupirocin inhibition of amino acid activation; assay type: biochemical; details: mupirocin inhibition towards Ile; GraphPad Prism output, Repl1-Repl3; read-out: KI, single replicates
T1 construct: hexa-histidine tag (pET28b(+)) (N); made in house; host or cells: E. coli BL21(DE3)
T1 sequence (Q9RUP8 whole entry): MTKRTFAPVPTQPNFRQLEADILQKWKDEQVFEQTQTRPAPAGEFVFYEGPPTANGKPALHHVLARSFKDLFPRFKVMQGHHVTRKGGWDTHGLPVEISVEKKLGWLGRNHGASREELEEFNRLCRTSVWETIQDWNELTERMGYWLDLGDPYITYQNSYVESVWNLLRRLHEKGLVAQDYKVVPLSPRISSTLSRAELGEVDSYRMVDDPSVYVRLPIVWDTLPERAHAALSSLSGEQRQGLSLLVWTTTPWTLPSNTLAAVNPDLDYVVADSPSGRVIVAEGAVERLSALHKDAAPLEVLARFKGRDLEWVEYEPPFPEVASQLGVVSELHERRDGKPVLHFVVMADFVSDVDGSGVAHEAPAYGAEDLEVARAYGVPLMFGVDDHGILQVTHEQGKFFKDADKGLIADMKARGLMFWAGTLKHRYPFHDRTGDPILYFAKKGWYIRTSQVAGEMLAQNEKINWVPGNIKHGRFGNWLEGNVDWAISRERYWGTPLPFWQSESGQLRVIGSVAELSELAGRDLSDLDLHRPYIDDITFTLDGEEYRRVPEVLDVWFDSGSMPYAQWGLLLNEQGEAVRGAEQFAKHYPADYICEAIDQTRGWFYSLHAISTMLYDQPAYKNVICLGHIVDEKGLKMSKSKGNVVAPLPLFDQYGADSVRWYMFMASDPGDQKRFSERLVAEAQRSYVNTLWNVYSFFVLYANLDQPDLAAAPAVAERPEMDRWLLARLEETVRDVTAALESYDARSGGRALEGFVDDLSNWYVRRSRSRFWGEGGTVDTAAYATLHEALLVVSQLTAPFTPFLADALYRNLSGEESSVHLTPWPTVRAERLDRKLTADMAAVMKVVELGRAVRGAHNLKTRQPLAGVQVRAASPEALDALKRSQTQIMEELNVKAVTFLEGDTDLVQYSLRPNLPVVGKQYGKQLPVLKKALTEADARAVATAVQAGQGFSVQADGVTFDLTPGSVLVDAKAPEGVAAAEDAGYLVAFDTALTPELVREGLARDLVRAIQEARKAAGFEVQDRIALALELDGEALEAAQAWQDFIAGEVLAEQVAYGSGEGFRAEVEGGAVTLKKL
Experimental: (§1) L-Ile and ATP concentrations ranged from 1/10 KM to 10 KM values. When measuring the KI towards one of the substrates, the other was held in saturation (concentrations at least 10 KM). The aliquots of the reaction mixture (1–2.5 μl) were quenched in 2 volumes of 500 mM NaOAc pH = 4.5, 0.1% SDS, and formed ^32P-ATP was separated from the remaining ^32P-PPi by thin-layer chromatography on Polygram CEL 300 PEI UV254 TLC plates (Macherey-Nagel, cat: 801063) using 750 mM KH2PO4 pH=3.5, 4 M urea buffer. Visualization and quantification of the signals was performed using a Typhoon Phosphoimager 5 (General Electric) and accompanying ImageQuant™ TL software (SV: 10.2). The kinetic constants were determined using a global fit option of the competitive inhibition model of GraphPad Prism 6 software (SV: 6.01). All experiments were performed in triplicates. The kcat was determined by dividing the maximal velocity, VM, with the used enzyme concentration. […]
(§2) variable substrate (ATP or Ile) was varied in the range of 0.1 KM to 10 KM. The other substrate (Ile or ATP) was kept in excess at 5 to 10 KM. Data were globally fitted to the competitive inhibition model using GraphPad prism 6.01 for Windows software. The values represent the average value ± SD of three independent experiments. Source data are provided as a Source Data file.

wt-HVGH TtIleRS2 = target: T2, wt-HVGH TtIleRS2 (Thermus thermophilus, UniProt P56690); experiment: as above; assay type: biochemical
T2 construct: hexa-histidine tag (pET28b(+)) (N); made in house; host or cells: E. coli Rosetta2 (DE3)
T2 sequence (P56690 1-1043): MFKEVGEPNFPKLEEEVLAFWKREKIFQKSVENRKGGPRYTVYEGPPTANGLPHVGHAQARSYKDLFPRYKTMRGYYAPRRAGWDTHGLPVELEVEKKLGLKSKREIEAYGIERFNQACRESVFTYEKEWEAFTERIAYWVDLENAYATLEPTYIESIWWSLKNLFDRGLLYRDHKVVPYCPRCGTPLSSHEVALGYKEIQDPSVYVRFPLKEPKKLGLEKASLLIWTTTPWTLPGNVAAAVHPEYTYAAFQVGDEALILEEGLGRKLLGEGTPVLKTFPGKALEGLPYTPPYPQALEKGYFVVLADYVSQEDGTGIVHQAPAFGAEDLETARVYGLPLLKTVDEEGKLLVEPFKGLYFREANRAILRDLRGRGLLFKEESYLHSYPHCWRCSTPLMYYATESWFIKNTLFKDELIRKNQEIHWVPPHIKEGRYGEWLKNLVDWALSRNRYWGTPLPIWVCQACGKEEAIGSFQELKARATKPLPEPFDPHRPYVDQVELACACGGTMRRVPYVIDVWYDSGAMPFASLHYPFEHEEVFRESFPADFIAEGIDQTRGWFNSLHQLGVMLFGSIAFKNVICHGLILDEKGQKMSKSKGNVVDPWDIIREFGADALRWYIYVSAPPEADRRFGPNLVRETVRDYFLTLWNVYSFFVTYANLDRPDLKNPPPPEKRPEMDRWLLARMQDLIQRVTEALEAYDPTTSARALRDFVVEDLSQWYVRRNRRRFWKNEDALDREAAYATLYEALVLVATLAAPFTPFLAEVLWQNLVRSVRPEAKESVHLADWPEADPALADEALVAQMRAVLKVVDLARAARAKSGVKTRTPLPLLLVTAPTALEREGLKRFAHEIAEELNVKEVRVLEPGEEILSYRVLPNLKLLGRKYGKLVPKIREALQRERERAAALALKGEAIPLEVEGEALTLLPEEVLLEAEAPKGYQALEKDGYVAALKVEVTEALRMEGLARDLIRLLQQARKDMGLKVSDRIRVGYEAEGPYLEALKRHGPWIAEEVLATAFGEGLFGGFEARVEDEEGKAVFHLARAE
Experimental: as §1, §2

For `C/C(=C\C(=O)OCCCCCCCCC(=O)O)C[C@@H]1OC[C@H](C[C@@H]2O[C@H]2[C@@H](C)[C@H](C)O)[C@@H](O)[C@H]1O` [mupirocin], the Ki (wt-ALHH DrIleRS2) was 7.22 mM and 6.75 mM and 5.95 mM, the Ki (wt-HVGH TtIleRS2; KI (MUP)ATP, amino acid activation assay, ATP as variable substrate, average ± SD of three independent experiments) was 0.0002 ± 1e-05 mM and the Ki (wt-HVGH TtIleRS2; KI (MUP)Ile, amino acid activation step, ATP/PPi exchange assay, Ile varied, ATP saturating, average ± SD of three independent experiments) was 0.0002 ± 1e-05 mM. For the same compound, the Ki (wt-HVGH TtIleRS2; KI, single replicates, mupirocin inhibition towards Ile, GraphPad Prism output, Repl1-Repl3) was 190 nM and 200 nM (3×), the initial velocity vo (wt-HVGH TtIleRS2; c(mupirocin) 0.25 μM, c(ATP) 0.5 mM) was 0.00545 mM/min and 0.00625 mM/min and 0.00878 mM/min and the initial velocity vo (wt-HVGH TtIleRS2; c(mupirocin) 0.25 μM, c(ATP) 1.0 mM) was 0.00989 mM/min and 0.00933 mM/min and 0.0106 mM/min. The initial velocity vo (wt-HVGH TtIleRS2; c(mupirocin) 0.25 μM, c(ATP) 2.5 mM) was 0.01904 mM/min and 0.0219 mM/min and 0.02129 mM/min, the initial velocity vo (wt-HVGH TtIleRS2; c(mupirocin) 0.25 μM, c(ATP) 5.0 mM) was 0.03233 mM/min and 0.03269 mM/min and 0.0316 mM/min and the initial velocity vo (wt-HVGH TtIleRS2; c(mupirocin) 0.25 μM, c(ATP) 10.0 mM) was 0.04434 mM/min and 0.04682 mM/min and 0.04511 mM/min. The initial velocity vo (wt-HVGH TtIleRS2; c(mupirocin) 0.25 μM, c(ATP) 15.0 mM) was 0.0472 mM/min and 0.05017 mM/min and 0.05086 mM/min, the initial velocity vo (wt-HVGH TtIleRS2; c(mupirocin) 0.25 μM, c(Ile) 5.0 μM) was 0.00612 mM/min and 0.00672 mM/min and 0.00733 mM/min and the initial velocity vo (wt-HVGH TtIleRS2; c(mupirocin) 0.25 μM, c(Ile) 15.0 μM) was 0.0169 mM/min and 0.01596 mM/min. For the same compound, the initial velocity vo (wt-HVGH TtIleRS2; c(mupirocin) 0.5 μM, c(ATP) 0.5 mM) was 0.00322 mM/min and 0.00373 mM/min and 0.00334 mM/min, the initial velocity vo (wt-HVGH TtIleRS2; c(mupirocin) 0.5 μM, c(ATP) 1.0 mM) was 0.00754 mM/min and 0.00751 mM/min and 0.00747 mM/min and the initial velocity vo (wt-HVGH TtIleRS2; c(mupirocin) 0.5 μM, c(ATP) 2.5 mM) was 0.01415 mM/min and 0.01653 mM/min and 0.01647 mM/min. For the same compound, the initial velocity vo (wt-HVGH TtIleRS2; c(mupirocin) 0.5 μM, c(ATP) 5.0 mM) was 0.02341 mM/min and 0.024 mM/min and 0.02727 mM/min, the initial velocity vo (wt-HVGH TtIleRS2; c(mupirocin) 0.5 μM, c(ATP) 10.0 mM) was 0.03666 mM/min and 0.03855 mM/min and 0.03894 mM/min and the initial velocity vo (wt-HVGH TtIleRS2; c(mupirocin) 0.5 μM, c(ATP) 15.0 mM) was 0.04188 mM/min and 0.04379 mM/min and 0.0434 mM/min. For the same compound, the initial velocity vo (wt-HVGH TtIleRS2; c(mupirocin) 0.5 μM, c(Ile) 5.0 μM) was 0.00349 mM/min and 0.00358 mM/min and 0.00422 mM/min, the initial velocity vo (wt-HVGH TtIleRS2; c(mupirocin) 0.5 μM, c(Ile) 15.0 μM) was 0.01037 mM/min and 0.01135 mM/min and 0.01134 mM/min and the initial velocity vo (wt-HVGH TtIleRS2; c(mupirocin) 1.0 μM, c(ATP) 1.0 mM) was 0.00403 mM/min and 0.00377 mM/min and 0.00474 mM/min. The initial velocity vo (wt-HVGH TtIleRS2; c(mupirocin) 1.0 μM, c(ATP) 2.5 mM) was 0.00961 mM/min and 0.01146 mM/min and 0.01193 mM/min, the initial velocity vo (wt-HVGH TtIleRS2; c(mupirocin) 1.0 μM, c(ATP) 5.0 mM) was 0.01986 mM/min and 0.02034 mM/min and 0.01615 mM/min and the initial velocity vo (wt-HVGH TtIleRS2; c(mupirocin) 1.0 μM, c(ATP) 10.0 mM) was 0.02901 mM/min and 0.02831 mM/min and 0.02535 mM/min. For the same compound, the initial velocity vo (wt-HVGH TtIleRS2; c(mupirocin) 1.0 μM, c(ATP) 15.0 mM) was 0.03565 mM/min and 0.03315 mM/min and 0.03301 mM/min, the initial velocity vo (wt-HVGH TtIleRS2; c(mupirocin) 1.0 μM, c(Ile) 5.0 μM) was 0.0018 mM/min and 0.00161 mM/min and 0.00213 mM/min and the initial velocity vo (wt-HVGH TtIleRS2; c(mupirocin) 1.0 μM, c(Ile) 15.0 μM) was 0.00627 mM/min and 0.00604 mM/min and 0.00608 mM/min. The initial velocity vo (wt-HVGH TtIleRS2; c(mupirocin) 1.0 μM, c(Ile) 50.0 μM) was 0.01613 mM/min and 0.01634 mM/min and 0.01627 mM/min, the initial velocity vo (wt-HVGH TtIleRS2; c(mupirocin) 2.5 μM, c(ATP) 2.5 mM) was 0.00405 mM/min and 0.00296 mM/min and 0.00525 mM/min and the initial velocity vo (wt-HVGH TtIleRS2; c(mupirocin) 2.5 μM, c(ATP) 5.0 mM) was 0.00797 mM/min and 0.00918 mM/min and 0.01147 mM/min. The initial velocity vo (wt-HVGH TtIleRS2; c(mupirocin) 2.5 μM, c(ATP) 10.0 mM) was 0.01533 mM/min and 0.01708 mM/min and 0.0168 mM/min, the initial velocity vo (wt-HVGH TtIleRS2; c(mupirocin) 2.5 μM, c(ATP) 15.0 mM) was 0.02441 mM/min and 0.0241 mM/min and 0.02037 mM/min and the initial velocity vo (wt-HVGH TtIleRS2; c(mupirocin) 5.0 μM, c(ATP) 2.5 mM) was 0.00309 mM/min and 0.0024 mM/min and 0.0026 mM/min. For the same compound, the initial velocity vo (wt-HVGH TtIleRS2; c(mupirocin) 5.0 μM, c(ATP) 5.0 mM) was 0.00527 mM/min and 0.00709 mM/min and 0.00659 mM/min, the initial velocity vo (wt-HVGH TtIleRS2; c(mupirocin) 5.0 μM, c(ATP) 10.0 mM) was 0.01002 mM/min and 0.00944 mM/min and 0.01333 mM/min and the initial velocity vo (wt-HVGH TtIleRS2; c(mupirocin) 5.0 μM, c(ATP) 15.0 mM) was 0.01409 mM/min and 0.01329 mM/min. For the same compound, the initial velocity vo (wt-HVGH TtIleRS2; c(mupirocin) 5.0 μM, c(Ile) 5.0 μM) was 0.00137 mM/min and 0.00102 mM/min and 0.00071 mM/min and the initial velocity vo (wt-HVGH TtIleRS2; c(mupirocin) 5.0 μM, c(Ile) 15.0 μM) was 0.00213 mM/min and 0.00316 mM/min and 0.00307 mM/min.
